Assay results reported in patent publication US10766873B2, “Zuclopenthixol hydrochloride derivatives and Ebselen derivatives as ErbB2 inhibitors” (Centre National de la Recherche Scientifique (CNRS), priority 2016, dated 2020).

How the values were obtained:
HBMEC = assay: MTT cell proliferation, HBMEC control cells; type: cell-based, human
Experimental: We then analyzed the ability of ZU and EB1 and their derivatives to decrease the ErbB2-dependent cell proliferation.
SKBR3, BT474, MCF-7, MDA-MB-231 and HBMEC cells were treated with the compounds as indicated, and cell proliferation was determined each day during 3 days using an MTT assay. Non treated cells were included as a negative control.
(§1) The WT, V777L or V842I ErbB2-transfected cells were treated with 5 or 10 μM of ZU and cell proliferation was determined each day during 3 days using an MTT assay. Non transfected cells were included as a negative control.
(§2) The WT, V777L or V842I ErbB2-transfected cells were treated with 5 or 10 μM of EB1 and cell proliferation was determined each day during 3 days using an MTT assay. Non transfected cells were included as a negative control.

SKBR3 = assay: Soft agar colony formation, SKBR3; type: cell-based, human; conditions: 5 or 10 μM, 6 weeks
Experimental: (§3) A bottom layer of 0.8% agarose in DMEM supplemented with 20% SVF and penicillin/streptomycin was added to 24 well plates before seeding 25.10^3 SKBR3 or BT474 cells/well in a 0.6% agarose top layer. Cells were left untreated or treated with 5 or 10 μM ZU or EB1 or 5 μM AG1478 (a non-specific ErbB2 kinase inhibitor) as a positive control. Treatments were renewed 3 times a week. After 6 weeks, the number of colonies and their size were quantified using image J software. The colony formation is illustrated for each condition. Data are presented as mean±SEM.

BT474 = assay: Soft agar colony formation, BT474; type: cell-based, human; conditions: 5 or 10 μM, 6 weeks
Experimental: as §3

V777L ErbB2 = target: T1, V777L ErbB2 (Homo sapiens, UniProt P04626, V777L); assay: Western blot pY1248, V777L ErbB2 in transfected HBMECs; type: cell-based; conditions: 0, 5, 10 or 20 μM, 48 h
T1 construct: expressed in transfected cells; host or cells: HBMEC
Experimental: (§4) HBMECs cells were transfected with plasmids encoding WT, V777L or V842I and treated with 0, 5, 10 or 20 μM ZU or EB1 for 48 h. ErbB2 activation was then analyzed by western blot analysis using a phospho-ErbB2-specific antibody (pY1248) and a total ErbB2 antibody. Histograms show optical density quantification.

V842I ErbB2 = target: T2, V842I ErbB2 (Homo sapiens, UniProt P04626, V842I); assay: Western blot pY1248, V842I ErbB2 in transfected HBMECs; type: cell-based; conditions: 0, 5, 10 or 20 μM, 48 h
T2 construct: expressed in transfected cells; host or cells: HBMEC
Experimental: as §4

[1] = test system: WT ErbB2-transfected cells; assay: MTT cell proliferation, WT ErbB2-transfected HBMEC; type: cell-based; conditions: day 3
Experimental: as §1, §2

ErbB2 = ErbB2 (Homo sapiens, UniProt P04626); assay: ErbB2 phosphorylation in SKBR3 cells, dot blot (4G10); type: cell-based; parameters: endogenous in cells; host or cells: SKBR3; conditions: SKBR3, 24 h
Experimental: The ability of ZU and EB1 and their derivatives to inhibit ErbB2 activity in cellulo on a commonly used ErbB2-overexpressing breast cancer cell line SKBR3 was analyzed. SKBR3 were treated 24 h with increasing concentrations of the compounds (0.625-80 μM) and ErbB2 phosphorylation was addressed by dot blot analysis using an anti-phosphotyrosine antibody (clone 4G10). Quantifications show the result of two independent experiments.

Which results are given for O=C1c2ccccc2[Se](=O)N1c1ccccc1 (centres unmarked) [EB1, Ebselen oxide]?
effect on HBMEC proliferation (in words) (HBMEC; 10 μM): without any effect; effect on proliferation of non-transfected HBMECs cells (in words) (HBMEC; 10 μM, day 3): no effect; EC50 (HBMEC; Homo sapiens, 72 h, read-out: Cell proliferation at d 3 HBMEC EC50, μM): 99.2 µM; Cell proliferation at d 3 HBMEC Max inhibition, % (HBMEC; day 3): 94.4%; anchorage-independent growth of SKBR3 (in words) (SKBR3): inhibited the anchorage-independent growth; anchorage-independent growth of BT474 (in words) (BT474): inhibited the anchorage-independent growth; ErbB2 V777L activation (in words) (V777L ErbB2): potently decrease; ErbB2 V842I activation (in words) (V842I ErbB2): potently decrease; decrease of the proliferation of WT transfected HBMEC ([1]; 5 μM): 60%; decrease of the proliferation of WT transfected HBMEC ([1]; 10 μM): 95%; Emax (ErbB2; SK-BR-3, 0.625-80 μM, read-out: ErbB2 activation 24 h Max inhibition, %): 66.9%; maximum inhibition of ErbB2 phosphorylation (ErbB2): 70%; EC50 (ErbB2; read-out: ErbB2 activation 24 h EC50): 23.4 µM; IC50 (ErbB2; read-out: IC50 ErbB2 phosphorylation): 20 µM
